According to article PMC9979163, “Discovery and functional characterization of N-(thiazol-2-yl)-benzamide analogs as the first class of selective antagonists of the Zinc-Activated Channel (ZAC)” (Biochemical pharmacology, 2021):
Where two headings read alike, the source gives them in different places.

Molecular target: T1, ZAC (Homo sapiens, UniProt Q401N2)
T1 sequence (Q401N2 26-412): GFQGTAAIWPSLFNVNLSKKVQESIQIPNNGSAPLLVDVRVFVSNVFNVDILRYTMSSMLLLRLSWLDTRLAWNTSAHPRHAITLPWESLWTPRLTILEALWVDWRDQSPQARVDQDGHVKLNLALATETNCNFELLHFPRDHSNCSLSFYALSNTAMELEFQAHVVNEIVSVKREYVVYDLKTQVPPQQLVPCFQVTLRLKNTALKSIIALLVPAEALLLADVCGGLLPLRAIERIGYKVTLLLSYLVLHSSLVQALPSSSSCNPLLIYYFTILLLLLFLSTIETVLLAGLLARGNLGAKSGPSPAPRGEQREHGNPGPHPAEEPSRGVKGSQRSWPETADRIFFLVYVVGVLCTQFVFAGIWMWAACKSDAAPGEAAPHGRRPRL
Test: TEVC recordings, Zn2+-evoked currents at ZAC expressed in Xenopus oocytes
Assay type: cell-based
Conditions: for Antagonist activity at ZAC in SAR study (in words): 1 mM Zn2+ as agonist, tested at three concentrations (0.3-3-30 μM or 1-10-100 μM); for Fitted inhibition range, Inhibition (%) / Hill coefficient nH ± S.E.M. / IC50: Zn2+ (1 mM) as agonist, TEVC; for IC50: steady-state current; for Extent of inhibition of Zn2+-induced responses (in words): Zn2+ (1 mM), full concentration-inhibition curves
Experimental: The cDNAs for the various WT and chimeric CLR subunits were linearized and subsequently transcribed and capped mMessage mMachine T7 RNA transcription kit (Ambion, Waltham, MA). Different amounts of cRNA mixtures were injected for ZAC (9.2–36.8 nL in a concentration of 0.05 μg/μL), […] nAChR (9.2–36.8 nL in a concentration of 0.1 μg/μL of each subunit in a ratio of 1:1), hα1 GlyR (9.2–36.8 nL in a concentration of 0.05 μg/μL), hα1β2γ2s GABAAR (9.2–36.8 nL in a concentration of 0.05 μg/μL of each subunit in a ratio of 1:1:3), m5-HT3AR (9.2–36.8 nL in a concentration of 0.05 μg/μL), m5-HT3A/ZAC (9.2–36.8 nL in a concentration of 0.207 μg/μL), and ZAC/hai-Gly (9.2–36.8 nL in a concentration of 0.206 μg/μL). Oocytes were incubated in a sterile modified Barth’s solution [88 mM NaCl, 1 mM KCl, 15 mM HEPES (pH 7.5), 2.4 mM NaHCO3, 0.41 mM CaCl2, 0.82 mM MgSO4, 0.3 mM Ca(NO3)2, 100 U/ml penicillin and 100 μg/ml strep-tomycin] at 18 °C for 2 days after injection.
On the day of experiment, all compound dilutions were prepared in a saline solution [115 mM NaCl, 2.5 mM KCl, 10 mM MOPS (pH 7.5), 1.8 mM CaCl2, 0.1 mM MgCl2] and pH adjusted to 7.5 (if needed). Oocytes were placed in a recording chamber continuously perfused with this saline solution, and the compounds were applied in the perfusate. Both voltage and current electrodes were agar-plugged with 3 M KCl with a resistance of 0.2–2.0 MΩ. Oocytes were voltage-clamped at −50 mV (unless otherwise stated) by a Gene Clamp 500B amplifier (Axon Instruments, Union City, CA), while current signals were digitized by a Digidata 1320. Currents were recorded using pCLAMP 10 (Molecular Devices, Sunnyvale, CA). The recordings were performed at room temperature.
In all recordings, the compounds or compound combinations were applied in the bath until the peak current decayed to a steady state (up to 30 sec at the most). […] The functional properties of the modulators at the CLRs were determined by pre-application of the modulator to the perfusate 30 sec and followed by co-application of the modulator and the agonist to the perfusate. In all recordings, washes of 1–5 min were executed between the applications to prevent receptor desensitization, the duration of these washes depending on the kinetics of the respective receptors and the “stickyness” of the respective compounds. […] For the selectivity and mode-of-action studies, the agonist concentrations used for different CLRs or chimeric CLRs were in the EC20–EC40 range (verified on the day of experiment), as this enabled us to investigate both for putative positive and negative receptor modulation exerted by TTFB (hα3β4 nAChR, 3 μM (S)-nicotine; m5-HT3AR, 2 μM 5-HT; hα1 GlyR, 100 μM glycine; hα1β2γ2S GABAAR, 30 μM GABA; m5-HT3A/ZAC, 0.3 μM 5-HT; ZAC/hɑ1-Gly, 2 μM Zn^2+).
Data analysis of the results from the TEVC recordings were performed using Clampfit software version 10.5 (Molecular Devices, Crawley, UK) and GraphPad Prism version 7.0c (GraphPad Software, Inc. La Jolla, CA). Data for the test compounds were normalized to either the maximal agonist-evoked current or to an EC20–EC50-mediated response elicited by the agonist on each oocyte (specified in each case). Unless otherwise stated, data for agonist-induced responses in the presence of the antagonists were extracted from the plateau (or steady-state) of the agonist-evoked current. Concentration-response and concentration-inhibition curves were fitted in GraphPad Prism by nonlinear regression using the equation for sigmoidal dose-response with variable slope. I-V relationships were analyzed by fitting the curves with a third order polynomial model. Each data point represents the mean ± S.E.M. value of recordings performed on at least five oocytes from at least two different batches.

[1] = read-out: pIC50 ± S.E.M. (converted)

Antagonist activity at ZAC in SAR study (in words)	Structure (SMILES)	other results
essentially inactive	CCOC(=O)c1sc(NC(=O)c2cc(OC)c(OC)c(OC)c2)nc1C [4l]	
inactive	CCOC(=O)c1sc(NC(=O)c2cccc(Br)c2)nc1C [3b]	
substantial loss of activity	O=C(Nc1nnc(C2CCCCC2)s1)c1cc(Br)ccc1Cl [2f]	
inactivity	CC(=O)c1sc(NC(=O)c2cc(F)c(F)cc2Cl)nc1C [6c]	
considerably weaker antagonist	Cc1nc(NC(=O)c2cccc(Br)c2)sc1C [3g]	
inactive	CCOC(=O)c1sc(NC(=O)c2ccccc2Cl)nc1C [4i]	
inactive	C=CCN(CC=C)S(=O)(=O)c1ccc(C(=O)Nc2nc(C)c(C(=O)OCC)s2)cc1 [4m]	
inactivity	Cc1cnc(NC(=O)c2cc(Br)ccc2Cl)s1 [2a]	
essentially inactive	COC(=O)c1sc(NC(=O)c2ccccc2C)nc1C [4a]	
essentially eliminated ZAC activity	CC(C)(C)c1nnc(NC(=O)c2cccc(Br)c2)s1 [3k]	
inactive	COC(=O)c1sc(NC(=O)c2ccncc2)nc1C [4h]	
weak ZAC activity	Cc1csc(NC(=O)c2cccc(Br)c2)n1 [3c]	
essentially inactive	COc1cc(C(=O)Nc2nc(C(C)(C)C)cs2)cc(OC)c1OC [5i]	
decreased antagonist potency	CN(C)c1cccc(C(=O)Nc2nc(C3CC3)cs2)c1 [6l]	
weaker antagonists	O=C(Nc1ncc([N+](=O)[O-])s1)c1cccc(Br)c1 [3f]	IC50 (read-out: IC50): ~20000 nM
inactive	CCc1nc(NC(=O)c2cccc(Br)c2)sc1C(=O)OC [3a]	
eliminated ZAC activity completely	O=C(Nc1nc(-c2ccc(Br)s2)cs1)c1cccc(Br)c1 [3e]	

Antagonist activity at ZAC in SAR study (in words)	Structure (SMILES)	other results
inactive	CCOc1ccc(C(=O)Nc2nc(C)c(C(=O)OC)s2)cc1Br [4g]	
roughly equipotent with 2b	CN(C)c1cccc(C(=O)Nc2nc(C(C)(C)C)cs2)c1 [5f]	
inactive	CCOC(=O)c1sc(NC(=O)c2cccnc2)nc1C [4n]	
inactive	CCOC(=O)c1sc(NC(=O)c2cc(Cl)cc(Cl)c2)nc1C [4j]	
reduced substantially	Cc1ccc(-c2csc(NC(=O)c3cc(Br)ccc3Cl)n2)cc1 [2d]	
inactivity	CCOC(=O)Cc1csc(NC(=O)c2cc(Cl)cc(Cl)c2)n1 [6g]	
further reduced ZAC activity	CC(C)c1csc(NC(=O)c2cccc(Nc3ncccn3)c2)n1 [6m]	
inactive	COC(=O)c1sc(NC(=O)c2cc([N+](=O)[O-])ccc2Cl)nc1C [4f]	
inactivity	Cc1cnc(NC(=O)c2cc(F)c(F)cc2Cl)s1 [6b]	
inactive	CCOC(=O)c1sc(NC(=O)c2ccco2)nc1C [4o]	
lower potency as ZAC antagonist than 2b	CC(C)(C)c1csc(NC(=O)c2cc(F)c(F)cc2Cl)n1 [5h]	
fairly potent	CC(C)(C)c1csc(NC(=O)c2cccc(Br)c2)n1 [3d]	
considerably weaker ZAC antagonist	CC(C)(C)c1csc(NC(=O)c2c(F)c(F)c(F)c(F)c2F)n1 [5b]	
substantial loss of activity	O=C(Nc1nc2ccccc2s1)c1cc(Br)ccc1Cl [2e]	
inactivity	O=C(Nc1nccs1)c1cc(F)c(F)cc1Cl [6a]	
essentially inactive	COC(=O)c1sc(NC(=O)c2ccc(C)cc2)nc1C [4b]	
inactive	CCOC(=O)c1sc(NC(=O)c2cc(Cl)ccc2OC)nc1C [4k]	

Structure (SMILES)	Antagonist activity at ZAC in SAR study (in words)	other results
COC(=O)c1sc(NC(=O)c2cc([N+](=O)[O-])cc([N+](=O)[O-])c2)nc1C [4e]	completely devoid of antagonist activity	
COC(=O)c1sc(NC(=O)c2cccc(I)c2)nc1C [4c]	did not alter its antagonist activity substantially	Fitted inhibition range, Inhibition (%): 78 ± 3%; Hill coefficient nH ± S.E.M.: −0.89 ± 0.06; IC50 [1]: 1020 nM; Extent of inhibition of Zn2+-induced responses (in words): completely
CC(C)(C)c1csc(NC(=O)c2cc(Br)ccc2Cl)n1 [2b]	slightly more potent and efficacious ZAC inhibition than 1	Fitted inhibition range, Inhibition (%): 88 ± 3%; Hill coefficient nH ± S.E.M.: −1.2 ± 0.12; IC50 [1]: 1320 nM; Extent of inhibition of Zn2+-induced responses (in words): completely
CCOC(=O)Cc1csc(NC(=O)c2cc(Br)ccc2Cl)n1 [2c]	slightly more potent and efficacious ZAC inhibition than 1	
COc1ccc(Cl)cc1C(=O)Nc1nc(C(C)(C)C)cs1 [5g]	somewhat potent but apparent partial inhibition	
COC(=O)c1sc(NC(=O)c2cc(C)cc(C)c2)nc1C [4d]	did not alter its antagonist activity substantially	
